Results reported in patent US12251422B2, “Compositions and methods for treating neurological and other disorders” (Rush University Medical Center, priority 2018, dated 2025).

How the values were obtained:
NF-κB [1] = assay: NF-κB activation by EMSA in primary microglia from WT mice; assay type: cell-based, mouse; details: peptide 1 h, 1 μM fibrillar Aβ1-42 for 1 h
Description: (§1) FIG. 16 (A-F). […] Primary microglia isolated from WT (A) and TLR2 (−/−) (B) mice were treated with different concentrations of wtTIDM peptide for 1 h followed by stimulation with 1 μM fibrillar Aβ1-42 under serum-free condition. After 1 h of stimulation, the activation of NF-κB was monitored by EMSA. WT (C & D) and TLR2 (−/−) (E & F) microglia were treated with different concentrations of wtTIDM and mTIDM peptides for 1 h followed by stimulation with 1 μM fibrillar Aβ1-42 under serum-free condition. After 18 h of stimulation, levels of TNFα (C & E) and IL-1β (D & F) were monitored in supernatants by ELISA (n=2 replicates/condition in 3 independent experiments). ap<0.001 vs control; bp<0.001 vs stimuli by two-sample t-tests.
(§2) Nuclear extracts were isolated and EMSA was carried out as described before (22, 23).

Tg-Tlr2−/− mice = assay: Plaques and memory in 5×FAD mice null for Tlr2 (Tg-Tlr2−/−); assay type: in vivo, mouse; details: 0.1 mg/kg body wt/2 d intranasal, 30 d
Description: FIG. 24 (A-H). […] A) Tlr2−/− mice were bred with Tg (5×FAD mice) and representative PCR of Tlr2, App695 and Psen1 transgene DNA expression is shown for 6-month old non-Tg, Tg (5×FAD), Tg-Tlr2−/− (F7), and Tlr2−/− mice. Average body weight (B) and wet brain weight (C) of non-Tg, Tg, Tg-Tlr2−/−, and Tlr2−/− mice. For wet brain weight, the olfactory lobes and brainstem were removed. […] After 30 d of treatment, hippocampal sections were immunolabeled with 6E10 mAb (D). […] Mice were tested for Barnes maze (F, track plot; G, latency; H, number of errors made). Four mice (n=4) were used in each group. NS, not significant by two-sample t-tests.

5×FAD Tg mice [2] = assay: Amyloid plaque / Aβ load in 5×FAD Tg mice; assay type: in vivo, mouse; details: 0.1 mg/kg body wt/2 d intranasal, 30 d
Description: FIG. 5 (A-Q). […] Actin was run as loading control. […] M) Hippocampal sections were immunolabeled with 82E1 mAb. […] Arrowhead indicates 4 kDa Aβ band.
FIG. 20 (A-B). Intranasal delivery of wtTIDM, but not mTIDM, peptide lowers the burden of amyloid plaques in the hippocampus of Tg mice. […] Actin was run as loading control. […] Results were analyzed by two-sample t-tests.
FIG. 21 (A-F). Intranasal delivery of wtTIDM, but not mTIDM, peptide reduces the levels of Aβ1-40 and Aβ1-42 in serum and hippocampus of Tg mice. […] After 30 d of treatment. ELISA quantification of Aβ1-40 (A, C & E) and Aβ1-42 (B, D & F) was performed in serum (A & B) and TBS (C & D) and (TBS+Triton X-100) (E & F) extracted hippocampal tissues. Six mice (n=6 per group) were used in two independent experiments. ap<0.01 & cp<0.001 versus non-Tg; bp<0.01 & dp<0.001 versus Tg by two-sample t-tests.
B6SJL-Tg (APPSwFlLon,PSEN1*M146L*L286V) 6799Vas/J transgenic (5×FAD or termed here as Tg) mice were purchased from Jackson Laboratories (Bar Harbor, ME). […] Briefly, TIDM peptides were dissolved in 5 μl normal saline, mice were hold in supine position and saline was delivered into one nostril using a pipetman.
Hippocampal tissues were homogenized in TBS, pelleted for 30 min×150,000 g. […]

5×FAD Tg mice [3] = assay: Barnes maze and T maze in 5×FAD Tg mice; assay type: in vivo, mouse
Source text: FIG. 6 (A-N). Intranasal delivery of wtTIDM, but not mTIDM, peptide inhibits neuronal apoptosis in vivo in the hippocampus and improves memory and learning in Tg mice. […] After 30 d of treatment, mice were sacrificed and hippocampal sections were double-labeled for TUNEL & NeuN (A). […] Hippocampal extracts of all groups of mice (n=4) were immunoblotted for cleaved caspase 3 (D). Actin was run as loading control. E) Bands were scanned and values (cleaved caspase 3/Actin) are presented as relative to non-Tg control. […] Protein levels of PSD-95. NR2A and GluR1 were monitored in hippocampal extracts by Western blot (F). Bands were scanned and values (G, PSD-95/Actin; H, NR2A/Actin; I, GluR1/Actin) are presented as relative to non-Tg control. […] Mice were tested for Barnes maze (J, latency; K, number of errors made) and T maze (L, number of positive turns; M, number of negative turns). Short-term memory was also monitored by novel object recognition test, which is represented by discrimination index (N). Eight mice (n=8) were used in each group and results were analyzed by one-way ANOVA.
Maze experiments were performed as described by us (52, 57). Briefly, for Barnes maze, mice were trained for 2 consecutive days followed by examination on day 3. […]

[4] = biological target: T1, interaction between newly-formed cTLR2 and MyD88 (Mus musculus, UniProt Q9QUN7); assay: MyD88 immunoprecipitation / c-Myc western blot in BV-2 cells transduced with pLenti-cMyc-cTlr2; assay type: cell-based; details: transduced BV-2 cells, fibrillar Aβ1-42 for 1 h
T1 construct: The cTLR2 (640-784 amino acids) tagged with c-myc was cloned in lenti vector; expressed in transfected cells; host or cells: BV-2 microglial cells transduced with pLenti-cMyc-cTlr2 lentivirions
T1 sequence (Q9QUN7 640-784): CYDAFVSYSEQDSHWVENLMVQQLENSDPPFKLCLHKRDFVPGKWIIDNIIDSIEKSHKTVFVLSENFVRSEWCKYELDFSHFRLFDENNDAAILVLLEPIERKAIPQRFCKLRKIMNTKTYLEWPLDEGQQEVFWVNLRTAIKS

NF-κB [5] = assay: NF-κB activation by EMSA in primary Tlr2−/− microglia; assay type: cell-based, mouse; details: peptide 1 h, 1 μM fibrillar Aβ1-42 for 1 h
Description: as §1, §2

CC[C@H](C)[C@H](NC(=O)[C@H](CCCCN)NC(=O)[C@@H](NC(=O)[C@H](CCC(N)=O)NC(=O)[C@H](CCCNC(=N)N)NC(=O)[C@@H](N)CC(=O)O)[C@@H](C)CC)C(=O)N[C@@H](Cc1c[nH]c2ccccc12)C(=O)N[C@@H](Cc1ccccc1)C(=O)N[C@@H](CCC(N)=O)C(=O)N[C@@H](CC(N)=O)C(=O)N[C@@H](CCCNC(=N)N)C(=O)N[C@@H](CCCNC(=N)N)C(=O)N[C@@H](CCSC)C(=O)N[C@@H](CCCCN)C(=O)N[C@@H](Cc1c[nH]c2ccccc12)C(=O)N[C@@H](CCCCN)C(=O)N[C@@H](CCCCN)C(=O)N1CCC[C@H]1C(=O)NCC(=O)N[C@@H](C)C(=O)N[C@@H](Cc1c[nH]cn1)C(=O)N[C@@H](CCC(N)=O)C(=O)N[C@@H](CCCCN)C(=O)O [wtTIDM, drqikiwfqnrrmkwkkPGAHQK]
inhibition of fibrillar Aβ1-42-induced activation of NF-κB in WT primary microglia (NF-κB [1]): inhibited | reduction of plaque load and improvement of spatial learning and memory in Tg-Tlr2−/− mice (Tg-Tlr2−/− mice): remained unable to do so | Aβ (plaques, Western blot, ELISA of Aβ1-40 and Aβ1-42 in serum and hippocampus) (5×FAD Tg mice [2]): significant decrease | memory functions in Barnes maze (latency, number of errors) (5×FAD Tg mice [3]; 0.1 mg/kg body wt/2 d intranasal, 30 d): significantly improved | spatial learning and memory in Tg mice (5×FAD Tg mice [3]; summary statement): improved | inhibition of interaction between newly-formed cTLR2 and MyD88 [4]: inhibited | inhibition of fibrillar Aβ1-42-induced activation of NF-κB in Tlr2−/− microglia (NF-κB [5]): remained unable to inhibit
